Molecules are shown by their SMILES. The source made the active and inactive calls. Some results are limits rather than exact numbers.

We go through 30 molecules from ChEMBL document CHEMBL1201862, “PubChem BioAssay data set” (2004).

In one assay the target is T1, Protein RecA (Mycobacterium tuberculosis, UniProt P9WHJ3).
T1 sequence (P9WHJ3 whole entry): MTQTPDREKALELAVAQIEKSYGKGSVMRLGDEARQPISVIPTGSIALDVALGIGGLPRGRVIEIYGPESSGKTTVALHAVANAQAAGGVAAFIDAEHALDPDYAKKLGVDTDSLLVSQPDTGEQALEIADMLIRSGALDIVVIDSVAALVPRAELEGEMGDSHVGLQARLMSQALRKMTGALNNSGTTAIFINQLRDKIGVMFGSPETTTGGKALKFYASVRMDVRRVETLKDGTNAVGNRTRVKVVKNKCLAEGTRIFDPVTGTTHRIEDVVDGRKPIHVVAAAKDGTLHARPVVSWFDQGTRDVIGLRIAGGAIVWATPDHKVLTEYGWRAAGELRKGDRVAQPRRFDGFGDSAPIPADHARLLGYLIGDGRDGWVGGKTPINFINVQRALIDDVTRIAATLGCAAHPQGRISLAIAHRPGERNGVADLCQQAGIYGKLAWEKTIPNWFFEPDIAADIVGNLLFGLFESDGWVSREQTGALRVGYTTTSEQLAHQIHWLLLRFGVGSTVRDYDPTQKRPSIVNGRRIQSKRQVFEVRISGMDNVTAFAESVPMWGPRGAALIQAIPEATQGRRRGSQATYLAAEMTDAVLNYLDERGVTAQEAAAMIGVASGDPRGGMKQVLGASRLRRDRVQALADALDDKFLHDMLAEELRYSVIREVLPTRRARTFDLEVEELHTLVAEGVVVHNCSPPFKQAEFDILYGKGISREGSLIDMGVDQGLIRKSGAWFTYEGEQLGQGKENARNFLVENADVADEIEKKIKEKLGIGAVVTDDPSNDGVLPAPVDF
Kind of assay: Fluorescence Cell-Free Homogeneous Dose Retest to Identify Inhibitors of RecA-Intein Splicing Activity. [Related pubchem assays (depositor defined):AID2097, AID2223, AID489010, AID492950].
Conditions: not given
It counts as functional.
With `N#CC1=C(N)Oc2nc(-c3ccccc3)[nH]c2C1c1cccnc1` (stereo not given), the EC50 is 2.6 µM (active).

Tested on in another assay: not listed separately
Kind of assay: A cytotoxicity screen of small molecule inhibitors of the PhoP region in Salmonella typhi identified in the primary screen. [Related pubchem assays: 1850, 1864, 1985 ]. It is filed as functional.
Conditions: not given
With `O=S(=O)(Nc1ncccn1)c1ccc(NC(=S)Nc2ccc(Cl)cc2)cc1`, the EC50 was > 50 µM (active). The same measure, in the same setting: then `O=C(C[n+]1ccc(-c2ccccc2)cc1)Nc1ccc([N+](=O)[O-])cc1`, with > 50 µM (active); and `Cc1nnc(SCC(=O)Nc2cc(S(=O)(=O)N3CCCC3)ccc2Cl)s1`, with > 50 µM (active); and `CCN(CC)C(=O)C(=O)c1cn(CC(=O)N2CCc3ccccc3C2)c2ccccc12`, with > 50 µM (active).

As for `O=C1CSC(=S)N1c1cccc(O)c1`, the EC50 is > 50 µM (active). In the case of `COC(=O)c1ccc(NC(=O)CO/N=C2\CCCc3nonc32)cc1`, the EC50 was > 50 µM (active). Still for that read-out and setting: then `CC(=O)OC1=C(O)C(=O)c2ccccc2C1=O`, with > 50 µM (active).

The next assay deals with T2, Calpain-2 catalytic subunit (Sus scrofa, UniProt P43367).
T2 sequence (P43367 whole entry): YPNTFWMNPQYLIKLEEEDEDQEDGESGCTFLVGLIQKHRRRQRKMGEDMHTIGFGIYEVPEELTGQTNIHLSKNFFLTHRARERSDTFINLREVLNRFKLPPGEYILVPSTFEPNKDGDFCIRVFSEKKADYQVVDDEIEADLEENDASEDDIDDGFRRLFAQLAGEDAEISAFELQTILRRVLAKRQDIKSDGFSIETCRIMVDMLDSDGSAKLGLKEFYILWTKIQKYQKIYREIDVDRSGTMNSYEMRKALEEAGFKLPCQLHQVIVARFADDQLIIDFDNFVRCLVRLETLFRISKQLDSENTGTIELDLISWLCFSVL
Kind of assay: pig calpain II inhibitor potency, dose response, biochemical, fluorogenic peptide substrate (AID 1420). It is filed as functional.
Conditions: not given
For `Cn1c(NC(=O)/C=C\c2ccccc2)cc(=O)n(C)c1=O`, the IC50 is on record as 7.1 µM (not active).

In a further assay the target is T3, Cytochrome P450 3A4 (Homo sapiens, UniProt P08684).
T3 sequence (P08684 whole entry): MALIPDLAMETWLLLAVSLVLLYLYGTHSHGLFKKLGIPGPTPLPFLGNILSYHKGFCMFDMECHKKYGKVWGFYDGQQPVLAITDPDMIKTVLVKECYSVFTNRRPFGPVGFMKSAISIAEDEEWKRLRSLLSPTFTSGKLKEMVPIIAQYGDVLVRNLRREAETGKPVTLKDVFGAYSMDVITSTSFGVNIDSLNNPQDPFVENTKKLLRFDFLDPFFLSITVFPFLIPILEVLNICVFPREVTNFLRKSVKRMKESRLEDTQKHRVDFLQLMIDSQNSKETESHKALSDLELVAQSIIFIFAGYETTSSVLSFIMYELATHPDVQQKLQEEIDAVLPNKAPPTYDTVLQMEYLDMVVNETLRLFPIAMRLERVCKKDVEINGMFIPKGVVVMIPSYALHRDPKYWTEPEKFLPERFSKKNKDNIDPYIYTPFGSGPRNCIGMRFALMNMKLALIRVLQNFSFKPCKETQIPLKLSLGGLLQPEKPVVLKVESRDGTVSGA
Assay: not given
The following applies: Potency.
Regarding `Oc1ccccc1O` [CATECHOL], the AC50 was 10 µM (inconclusive). The same measure, in the same setting: then `COc1ccc(OC2C=CC(c3ccccc3)OC2CO)c(C(C)=O)c1` (stereo not given), with 3.98 µM (inconclusive); and `Cc1nc(N2CCOCC2)c2nc(-c3ccccc3)n(CCCN3CCCCC3C)c2n1` (stereo not given), with 15.8 µM (inconclusive). Still for that read-out and setting: then `COc1ccc(C2OCC3(COC(C)=O)C(C)C=C(C)C2C3C)cc1` (stereo not given), with 15.8 µM (inconclusive); and `CCC12C=CCN3CCC4(c5ccc(OC)cc5N(C)C4[C@@](O)(C(=O)OC)C1OC(C)=O)C32` (stereo not given in full), with 3.98 µM (inconclusive); and `CC(=O)OC1CC2C(C)(C)C(=O)[C@@H]3OC3[C@@]2(C)C2CC[C@]3(C)C(=CC(=O)OC3c3ccoc3)[C@]12C` (stereo not given in full), with 15.8 µM (inconclusive).

Tested on in another assay: not listed separately
Kind of assay: cytotoxicity in HEK-293T cells, dose response, cytotoxicity control for TCR NF-kB inhibitor project, luminescence, T-cell screen hits (AID 489026).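 Note: cells exposed to compound about 14 hours before the viability readout.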 It is filed as functional, cell-based.
Conditions: not given
As for `C/C=C(\C)C(=O)N[C@@H](c1ccccc1)[C@@H](O)C(=O)O[C@H]1C[C@@]2(O)[C@@H](OC(=O)c3ccccc3)C3[C@](C)(C(=O)[C@H](OC(C)=O)C(=C1C)C2(C)C)[C@@H](O)C[C@H]1OC[C@@]31OC(C)=O` (stereo not given in full), the IC50 was > 80 µM (inactive).

Consider `COC(=O)CCC(=O)NC(=S)Nc1sc(C)c(C)c1C(N)=O`, for which the IC50 is > 80 µM (inactive).

The target in a further assay is Cytochrome P450 2D6 (Homo sapiens, UniProt P10635).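 Note: CYP2D6 member of a cytochrome P450 panel assay.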
Sequence of Cytochrome P450 2D6 (P10635 whole entry): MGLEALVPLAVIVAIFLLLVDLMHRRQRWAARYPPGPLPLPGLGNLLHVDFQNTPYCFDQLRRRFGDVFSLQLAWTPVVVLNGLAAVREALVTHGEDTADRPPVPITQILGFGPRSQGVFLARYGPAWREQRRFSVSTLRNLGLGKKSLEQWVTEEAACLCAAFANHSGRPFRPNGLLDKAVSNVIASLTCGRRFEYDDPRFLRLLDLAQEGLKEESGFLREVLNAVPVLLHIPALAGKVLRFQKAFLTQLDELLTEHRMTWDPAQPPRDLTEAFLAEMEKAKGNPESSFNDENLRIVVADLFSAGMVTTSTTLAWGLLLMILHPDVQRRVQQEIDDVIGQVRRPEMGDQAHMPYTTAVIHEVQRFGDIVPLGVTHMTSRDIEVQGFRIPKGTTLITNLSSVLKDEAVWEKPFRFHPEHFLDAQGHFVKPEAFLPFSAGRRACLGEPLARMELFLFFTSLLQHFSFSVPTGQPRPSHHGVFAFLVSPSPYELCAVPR
Assay: not given
Conditions: not given
On to `CC1CCc2c(C(=O)Nc3nccs3)csc2C1` (stereo not given), for which the AC50 is 3.55 µM (inconclusive).

Tested on in a further assay: not listed separately
Put plainly: intracellular Trypanosoma cruzi inhibitors in host cells – cell-based, plate reader, cherry-pick samples, set 3, dose response (AID 651818).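 Note: compounds incubated with infected cells for about four days.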 It counts as functional.
Conditions: not given
Take `CNC[C@H]1Oc2c(NC(=O)Nc3ccc(OC)cc3)cccc2C(=O)N([C@H](C)CO)C[C@@H]1C`: the AC50 was 20 µM (inactive). On the same count and under the same terms, then `C[C@@H]1CN([C@@H](C)CO)C(=O)c2cccc(NC(=O)Nc3ccc4c(c3)OCO4)c2O[C@@H]1CN(C)Cc1ccc(C(=O)Nc2ccccc2N)cc1`, with 3.18 µM (active); and `C[C@@H]1CN([C@@H](C)CO)C(=O)c2cccc(NC(=O)Nc3ccc(C(F)(F)F)cc3)c2O[C@@H]1CN(C)Cc1ccc(C(=O)Nc2ccccc2N)cc1`, with 0.787 µM (active).

`C[C@@H]1CCCCO[C@H](CN(C)Cc2ccc(C(=O)Nc3ccccc3N)cc2)[C@@H](C)CN([C@H](C)CO)C(=O)c2cc(NS(=O)(=O)c3ccc(F)cc3)ccc2O1`: the AC50 is 1.83 µM (active). For the molecule `C[C@@H]1CN([C@H](C)CO)C(=O)Cc2cc(NC(=O)Nc3ccc4c(c3)OCO4)ccc2O[C@@H]1CN(C)Cc1ccc(Oc2ccccc2)cc1`, the AC50 was 2.87 µM (active).

The target in the next assay is T4, Leucine aminopeptidase (Plasmodium falciparum 3D7, UniProt Q8IL11).
T4 sequence (Q8IL11 whole entry): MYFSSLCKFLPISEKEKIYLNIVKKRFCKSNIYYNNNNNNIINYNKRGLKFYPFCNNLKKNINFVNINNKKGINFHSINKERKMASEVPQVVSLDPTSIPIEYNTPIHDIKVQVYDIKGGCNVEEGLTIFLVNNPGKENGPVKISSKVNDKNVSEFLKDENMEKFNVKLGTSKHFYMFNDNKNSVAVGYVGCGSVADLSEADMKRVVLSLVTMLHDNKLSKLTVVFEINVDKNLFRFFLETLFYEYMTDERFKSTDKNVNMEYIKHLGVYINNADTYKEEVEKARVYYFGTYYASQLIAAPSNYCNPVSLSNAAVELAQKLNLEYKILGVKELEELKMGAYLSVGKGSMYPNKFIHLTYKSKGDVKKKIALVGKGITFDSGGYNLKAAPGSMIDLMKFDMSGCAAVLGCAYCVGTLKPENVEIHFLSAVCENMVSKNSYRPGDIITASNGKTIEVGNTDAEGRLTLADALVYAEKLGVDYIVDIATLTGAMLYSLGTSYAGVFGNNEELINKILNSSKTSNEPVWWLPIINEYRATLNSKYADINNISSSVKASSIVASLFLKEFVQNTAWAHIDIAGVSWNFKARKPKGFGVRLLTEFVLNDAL
Kind of assay: P. falciparum M17LAP inhibitors, primary screen, biochemical, fluorogenic H-Leu-NHMec substrate, 1536-well (AID 1619). It counts as functional.
Conditions: not given
As for `O=C(c1ccco1)c1c[nH]nc1-c1ccc(Cl)cc1O`, the IC50 was 101 µM (active). On the same count and under the same terms, then `Cn1c(NC(=O)/C=C\c2ccccc2)cc(=O)n(C)c1=O`, with 78.4 µM (active); and `CCOc1ccc(NC(=O)CSc2n[nH]c(N)n2)c([N+](=O)[O-])c1`, with 12.7 µM (active); and `COc1nccnc1NS(=O)(=O)c1ccc(/N=C/c2c(C)[nH]n(-c3ccccc3)c2=O)cc1`, with 35 µM (active). The same measure, in the same setting: then `N#CC1=C(N)Oc2nc(-c3ccccc3)[nH]c2C1c1cccnc1` (stereo not given), with 66.6 µM (active).

For a further assay, the target named is T5, Protein skinhead-1 (Caenorhabditis elegans, UniProt P34707).
T5 sequence (P34707 whole entry): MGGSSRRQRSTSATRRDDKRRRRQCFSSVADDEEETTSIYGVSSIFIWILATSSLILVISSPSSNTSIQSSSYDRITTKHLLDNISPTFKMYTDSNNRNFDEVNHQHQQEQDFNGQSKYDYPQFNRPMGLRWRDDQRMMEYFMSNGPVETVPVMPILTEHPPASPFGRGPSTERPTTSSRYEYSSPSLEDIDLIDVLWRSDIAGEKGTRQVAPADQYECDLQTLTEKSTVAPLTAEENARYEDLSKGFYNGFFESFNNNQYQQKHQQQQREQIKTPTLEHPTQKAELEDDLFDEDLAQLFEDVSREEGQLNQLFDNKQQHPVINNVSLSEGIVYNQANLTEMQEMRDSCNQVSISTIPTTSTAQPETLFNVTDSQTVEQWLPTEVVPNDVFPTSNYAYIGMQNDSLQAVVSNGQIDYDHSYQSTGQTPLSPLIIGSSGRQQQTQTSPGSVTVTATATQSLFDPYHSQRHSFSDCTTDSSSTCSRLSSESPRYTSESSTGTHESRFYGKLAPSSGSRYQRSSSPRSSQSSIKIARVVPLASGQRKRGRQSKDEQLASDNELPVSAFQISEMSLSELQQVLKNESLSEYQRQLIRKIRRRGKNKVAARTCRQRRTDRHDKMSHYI
Assay: not given
It counts as functional.
Conditions: not given
Take `COc1ccc(C(=O)c2oc3ccc(OC)cc3c2N)cc1`: the IC50 was > 100 µM (inactive).

For the molecule `CC1CCc2c(C(=O)Nc3nccs3)csc2C1` (stereo not given), the IC50 was > 100 µM (inactive). Regarding `O=C(NC(=S)Nc1cccc2c(O)cccc12)c1cccc(Br)c1`, the IC50 was > 100 µM (inactive). Same read-out and setting: then `O=C(Nc1nc2ccccc2s1)c1ccccc1`, with > 100 µM (inactive); and `O=C(Cn1c(C(F)(F)F)nc2ccccc21)c1ccc(F)cc1`, with > 100 µM (inactive).

The target of the next assay is T3, Cytochrome P450 3A4.
Assay: not given
Conditions: not given
Regarding `O=C(Cn1c(C(F)(F)F)nc2ccccc21)c1ccc(F)cc1`, the AC50 was 12.6 µM (inconclusive).

For a further assay, the target named is T6, Replicative DNA helicase DnaB (Mycobacterium tuberculosis, UniProt P9WMR3).
T6 sequence (P9WMR3 whole entry): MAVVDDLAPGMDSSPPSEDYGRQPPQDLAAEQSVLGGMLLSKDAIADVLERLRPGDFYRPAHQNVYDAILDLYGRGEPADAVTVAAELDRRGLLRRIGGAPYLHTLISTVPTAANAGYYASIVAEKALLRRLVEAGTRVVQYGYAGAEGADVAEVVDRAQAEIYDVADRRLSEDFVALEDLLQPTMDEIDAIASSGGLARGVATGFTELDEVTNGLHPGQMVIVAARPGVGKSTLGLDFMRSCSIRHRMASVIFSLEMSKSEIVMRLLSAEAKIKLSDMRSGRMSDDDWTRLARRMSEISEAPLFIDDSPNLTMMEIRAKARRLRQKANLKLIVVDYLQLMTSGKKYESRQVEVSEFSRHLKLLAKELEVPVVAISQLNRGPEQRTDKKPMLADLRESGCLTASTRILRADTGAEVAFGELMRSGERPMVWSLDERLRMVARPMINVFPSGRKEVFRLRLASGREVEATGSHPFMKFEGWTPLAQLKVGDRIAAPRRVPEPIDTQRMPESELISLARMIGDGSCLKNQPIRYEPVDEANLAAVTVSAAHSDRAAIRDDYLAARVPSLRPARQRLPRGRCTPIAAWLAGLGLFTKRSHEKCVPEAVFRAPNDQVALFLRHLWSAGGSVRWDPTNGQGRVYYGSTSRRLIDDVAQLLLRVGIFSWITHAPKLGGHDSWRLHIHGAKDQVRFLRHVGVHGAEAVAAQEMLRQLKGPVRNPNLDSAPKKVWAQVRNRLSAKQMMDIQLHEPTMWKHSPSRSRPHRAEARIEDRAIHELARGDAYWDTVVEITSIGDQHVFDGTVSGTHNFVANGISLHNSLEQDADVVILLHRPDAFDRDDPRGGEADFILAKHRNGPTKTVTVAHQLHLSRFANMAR
Kind of assay: DnaB intein splicing inhibitors, dose response, biochemical, cell-free fluorescence (AID 449749). It counts as functional.
Conditions: not given
Regarding `N#CC1=C(N)Oc2nc(-c3ccccc3)[nH]c2C1c1cccnc1` (stereo not given), the AC50 was 11.3 µM (active).

One may read the EC50 as the concentration at which the effect is half-maximal. The term IC50 denotes the midpoint of a concentration-inhibition curve. Usually AC50 stands for the midpoint of the concentration-response curve, whichever way the signal moves.
